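1) Cells in 96-well plates. 2) Compound, 48 h, 5 concentrations. 3) Linear interpolation between surrounding doses. 4) Unreached endpoint = highest concentration. GI50: concentration for 50% inhibition of growth.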 Calls of active or inactive are those of the source. Rule as the data show it: active = GI50 up to about 1.1 µM and inactive = higher. Square brackets hold non-standard residues; d marks the D form. Peptide text beside a SMILES is read from it. * marks the point of attachment. X26 = COC1=CC(=O)N(C(=O)[C@@H](O*)C(C)C)[C@H]1Cc1ccccc1; NMeV = CN[C@H](C(=O)O)C(C)C; Hexanoyl = CCCCCC(=O)*
Columns and labels:
Assay in all cases: DTP human tumour cell line panel, 48 h
[1] = test system: OVCAR-8
[2] = test system: COLO 205
[3] = test system: MDA-MB-231
[4] = test system: HCT-15
[5] = test system: SF-539
[6] = test system: SN12C
[7] = test system: NCI-H460
[8] = test system: U-251
[9] = test system: EKVX
[10] = test system: Malme-3M
[11] = test system: CCRF-CEM
[12] = test system: MOLT-4
[13] = test system: K562
[14] = test system: MDA-N
[15] = test system: PC-3
[16] = test system: KM12
[17] = test system: LOX IMVI
[18] = test system: SW-620

| Compound | GI50 [1] | GI50 [2] | GI50 [3] | GI50 [4] | GI50 [5] | GI50 [6] | GI50 [7] | GI50 [8] | GI50 [9] | GI50 [10] | GI50 [11] | GI50 [12] | GI50 [13] | GI50 [14] | GI50 [15] | GI50 [16] | GI50 [17] | GI50 [18] |
| --- | --- | --- | --- | --- | --- | --- | --- | --- | --- | --- | --- | --- | --- | --- | --- | --- | --- | --- |
| C=CCN1C[C@H](C)N([C@@H](c2ccc(C(=O)N3CCCCC3)cc2)c2cccc(OC)c2)C[C@H]1C | 43.7 µM (inactive) | 16.6 µM (inactive) | 30.1 µM (inactive) | 29.6 µM | 27 µM (inactive) | 43 µM (inactive) | 31 µM (inactive) | 32.1 µM (inactive) | 44.4 µM (inactive) | 18.5 µM (inactive) | 21.5 µM (inactive) | 64.1 µM (inactive) | 20.6 µM (inactive) | 34.5 µM (inactive) | 21.9 µM (inactive) | 36.9 µM (inactive) | 14.4 µM (inactive) | – |
| CCOC(=O)c1cn2c(n1)sc1c(Cl)c(Cl)ccc12 | 15.9 µM (inactive) | 6.1 µM (inactive) | 26.7 µM (inactive) | 5.07 µM | 6.76 µM (inactive) | 3.45 µM (inactive) | > 60.1 µM (inactive) | 11 µM (inactive) | 31 µM (inactive) | 1.96 µM (inactive) | 4.97 µM (inactive) | 8.71 µM (inactive) | 3.96 µM (inactive) | 1.56 µM (inactive) | 18.3 µM (inactive) | 5.36 µM (inactive) | 13.2 µM (inactive) | 5.13 µM (inactive) |
| CCCCCC(=O)N[C@H](C(=O)N[C@H](C(=O)N(C)[C@H](C(=O)N1CCC[C@H]1C(=O)N1CCC[C@H]1C(=O)O[C@H](C(=O)N1C(=O)C=C(OC)[C@@H]1Cc1ccccc1)C(C)C)C(C)C)C(C)C)C(C)C (Hexanoyl-VV[NMeV]PP-X26) | > 100 µM (inactive) | > 100 µM (inactive) | 34.2 µM (inactive) | > 100 µM | 36.9 µM (inactive) | 94.6 µM (inactive) | > 100 µM (inactive) | 43.8 µM (inactive) | 85.9 µM (inactive) | > 100 µM (inactive) | 48.6 µM (inactive) | 63 µM (inactive) | 71.1 µM (inactive) | 33.8 µM (inactive) | 25.2 µM (inactive) | > 100 µM (inactive) | > 100 µM (inactive) | > 100 µM (inactive) |
| COc1cccc2c(=O)oc(-c3ccccc3C)nc12 | 48.8 µM (inactive) | 39.8 µM (inactive) | 63.7 µM (inactive) | 43.9 µM | 25.5 µM (inactive) | 26.5 µM (inactive) | 56.9 µM (inactive) | 45.4 µM (inactive) | > 100 µM (inactive) | 42.2 µM (inactive) | 25.9 µM (inactive) | 26.7 µM (inactive) | 39.8 µM (inactive) | 19.8 µM (inactive) | 35.7 µM (inactive) | 38 µM (inactive) | 18.3 µM (inactive) | 40.6 µM (inactive) |
| c1ccc(CCCCNCc2cc(CNCCCCc3ccccc3)cc(CNCCCCc3ccccc3)c2)cc1 | 0.782 µM (active) | 0.366 µM (active) | 1.61 µM (inactive) | 0.586 µM | 0.8 µM (active) | 3.63 µM (inactive) | 0.364 µM (active) | 1.12 µM (inactive) | 1.64 µM (inactive) | 1.76 µM (inactive) | 0.211 µM (active) | 0.251 µM (active) | 0.272 µM (active) | 2.36 µM (inactive) | 1.41 µM (inactive) | 0.544 µM (active) | 0.308 µM (active) | 0.301 µM (active) |
| O=C(/C=C/c1cccc(Br)c1)N1CCN(CCOC(c2ccccc2)c2ccccc2)CC1 | 55.5 µM (inactive) | 17.5 µM (inactive) | > 100 µM (inactive) | 27.6 µM | 18.4 µM (inactive) | 31.7 µM (inactive) | 31.8 µM (inactive) | 35.3 µM (inactive) | > 100 µM (inactive) | 36.4 µM (inactive) | 17.1 µM (inactive) | 6.53 µM (inactive) | 13 µM (inactive) | 41.4 µM (inactive) | 44.1 µM (inactive) | 32 µM (inactive) | 24.2 µM (inactive) | 50.8 µM (inactive) |
| Cc1cccc2sc(NC(=O)c3cc([N+](=O)[O-])ccc3Cl)nc12 | 2.36 µM (inactive) | 5.96 µM (inactive) | 4.73 µM (inactive) | 1.91 µM | 2.36 µM (inactive) | 1.55 µM (inactive) | 3.96 µM (inactive) | 2.85 µM (inactive) | 11.4 µM (inactive) | 5.38 µM (inactive) | 0.0817 µM (active) | – | > 100 µM (inactive) | 1.56 µM (inactive) | 4.14 µM (inactive) | 2.42 µM (inactive) | 2.01 µM (inactive) | 2.42 µM (inactive) |
| C=CN1CCN(c2ccccc2)P1(=O)Oc1ccccc1 (centres undefined) | 89.3 µM (inactive) | > 100 µM (inactive) | 55.6 µM (inactive) | > 100 µM | > 100 µM (inactive) | > 100 µM (inactive) | > 100 µM (inactive) | > 100 µM (inactive) | 45 µM (inactive) | > 100 µM (inactive) | > 100 µM (inactive) | > 100 µM (inactive) | > 100 µM (inactive) | 63.4 µM (inactive) | 31.3 µM (inactive) | > 100 µM (inactive) | > 100 µM (inactive) | > 100 µM (inactive) |
| COc1cc(/C=C/c2sc3ccccc3[n+]2C)ccc1N(C)C | 2.93 µM (inactive) | 1.29 µM (inactive) | 6.14 µM (inactive) | 37.2 µM | 17.3 µM (inactive) | 12.9 µM (inactive) | 6.11 µM (inactive) | 6.9 µM (inactive) | 21.8 µM (inactive) | 2.49 µM (inactive) | 2.06 µM (inactive) | 4.55 µM (inactive) | 2.1 µM (inactive) | 2.48 µM (inactive) | 3.24 µM (inactive) | 3.62 µM (inactive) | 15.8 µM (inactive) | 5.07 µM (inactive) |
| C=C(Br)CNC(=O)Nc1ccc(Cl)c(Cl)c1 | – | 16.9 µM (inactive) | 15.2 µM (inactive) | 30.5 µM | 19.3 µM (inactive) | 25.2 µM (inactive) | 26.5 µM (inactive) | 22.6 µM (inactive) | 28.1 µM (inactive) | 20.1 µM (inactive) | 19.3 µM (inactive) | 26.2 µM (inactive) | 23.8 µM (inactive) | 27.3 µM (inactive) | 11.2 µM (inactive) | 17.3 µM (inactive) | 19.7 µM (inactive) | 35.4 µM (inactive) |
| O=[N+]([O-])C(=C1NCCN1)C(Cl)=C(Cl)Cl | > 100 µM (inactive) | > 100 µM (inactive) | > 100 µM (inactive) | > 100 µM | > 100 µM (inactive) | > 100 µM (inactive) | > 100 µM (inactive) | > 100 µM (inactive) | > 100 µM (inactive) | > 100 µM (inactive) | 52.6 µM (inactive) | 49.5 µM (inactive) | > 100 µM (inactive) | > 100 µM (inactive) | > 100 µM (inactive) | > 100 µM (inactive) | > 100 µM (inactive) | – |
| CC(N)/C(N)=N/O (centres undefined) | > 100 µM (inactive) | > 100 µM (inactive) | > 100 µM (inactive) | > 100 µM | > 100 µM (inactive) | > 100 µM (inactive) | > 100 µM (inactive) | > 100 µM (inactive) | > 100 µM (inactive) | > 100 µM (inactive) | > 100 µM (inactive) | – | > 100 µM (inactive) | > 100 µM (inactive) | > 100 µM (inactive) | > 100 µM (inactive) | > 100 µM (inactive) | > 100 µM (inactive) |
| Cc1ccc(S(=O)(=O)NC(=O)NC(Cc2c[nH]c3ccccc23)C(=O)O)cc1 (centres undefined) | > 100 µM (inactive) | > 100 µM (inactive) | > 100 µM (inactive) | > 100 µM | > 100 µM (inactive) | > 100 µM (inactive) | > 100 µM (inactive) | > 100 µM (inactive) | – | > 100 µM (inactive) | > 100 µM (inactive) | > 100 µM (inactive) | > 100 µM (inactive) | > 100 µM (inactive) | > 100 µM (inactive) | > 100 µM (inactive) | > 100 µM (inactive) | > 100 µM (inactive) |
| CC1CC2OC(=N)C1(C#N)C2(C#N)C#N (centres undefined) | 25.1 µM (inactive) | 10.9 µM (inactive) | 17.2 µM (inactive) | 14 µM | 22.5 µM (inactive) | 19.5 µM (inactive) | – | 27.9 µM (inactive) | 16.6 µM (inactive) | 15.8 µM (inactive) | 4.94 µM (inactive) | 24.7 µM (inactive) | 17.9 µM (inactive) | 16.3 µM (inactive) | 25.7 µM (inactive) | 39.3 µM (inactive) | 14.7 µM (inactive) | 18.2 µM (inactive) |
| C/C=C(\C)CC/C=C/CO[Si](C)(C)C(C)(C)C | > 100 µM (inactive) | > 100 µM (inactive) | > 100 µM (inactive) | > 100 µM | > 100 µM (inactive) | > 100 µM (inactive) | > 100 µM (inactive) | – | > 100 µM (inactive) | 51.1 µM (inactive) | 24.7 µM (inactive) | 39 µM (inactive) | > 100 µM (inactive) | > 100 µM (inactive) | > 100 µM (inactive) | > 100 µM (inactive) | 22.3 µM (inactive) | > 100 µM (inactive) |
| O=C1C=C(c2c(-c3ccccc3)[nH]c3ccccc23)C(=O)N1c1ccccc1 | 4.46 µM (inactive) | 8.3 µM (inactive) | 11.3 µM (inactive) | 5.38 µM | 8.24 µM (inactive) | 6.65 µM (inactive) | 14.6 µM (inactive) | 13.5 µM (inactive) | 12.4 µM (inactive) | 11.5 µM (inactive) | 4.02 µM (inactive) | 25.2 µM (inactive) | 7.41 µM (inactive) | 3.89 µM (inactive) | 7.78 µM (inactive) | – | 3.77 µM (inactive) | 5.12 µM (inactive) |
